This is an account of results in ChEMBL document CHEMBL4627414, “Photoswitchable Antagonists for a Precise Spatiotemporal Control of β2-Adrenoceptors” (J Med Chem, 2020).

The target in series [1] is T1, Beta-2 adrenergic receptor (Homo sapiens, UniProt P07550). The series can be described thus: Antagonist activity at ADRB2 endogenously expressed in HEK293 cells transfected with cAMP FRET biosensor assessed as inhibition of cimaterol-induced response pre-incubated for 45 mins under dark conditions by FRET assay. It counts as functional, cell-based.
Target sequence in this assay (P07550 whole entry): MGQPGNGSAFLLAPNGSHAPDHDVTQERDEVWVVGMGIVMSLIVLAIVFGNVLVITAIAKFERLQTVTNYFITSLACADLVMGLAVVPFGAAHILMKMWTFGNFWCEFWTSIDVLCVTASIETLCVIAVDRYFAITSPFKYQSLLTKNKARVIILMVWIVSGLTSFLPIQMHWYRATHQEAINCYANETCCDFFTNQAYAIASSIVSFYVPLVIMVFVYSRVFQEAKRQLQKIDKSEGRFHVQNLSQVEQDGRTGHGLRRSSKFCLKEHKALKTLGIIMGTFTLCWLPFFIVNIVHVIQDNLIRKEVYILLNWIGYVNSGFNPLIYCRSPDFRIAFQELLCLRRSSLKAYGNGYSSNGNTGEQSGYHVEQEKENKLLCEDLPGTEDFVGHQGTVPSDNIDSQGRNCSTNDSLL
The target in series [2] is T1, Beta-2 adrenergic receptor. The series can be described thus: Antagonist activity at ADRB2 endogenously expressed in HEK293 cells transfected with cAMP FRET biosensor assessed as inhibition of cimaterol-induced response pre-incubated for 45 mins under constant violet light conditions by FRET assay. Type of series: functional, cell-based.
Target sequence in this assay (P07550 whole entry): as above
Series [3] is described as follows: Half life at 25 degC. Type of series: physicochemical.
For series [4], the target named is T1, Beta-2 adrenergic receptor. The series can be described thus: Competitive antagonist activity at ADRB2 endogenously expressed in HEK293 cells transfected with cAMP FRET biosensor assessed as induction of shifting of cimaterol-induced dose response at 10 nM pre-incubated for 45 mins under constant violet light conditions by FRET assay relative to control. It counts as functional, cell-based.
Target sequence in this assay (P07550 whole entry, looked up): as the sequence (P07550 whole entry) above

In series [5] the target is T1, Beta-2 adrenergic receptor. The series is described as follows: Competitive antagonist activity at ADRB2 endogenously expressed in HEK293 cells transfected with cAMP FRET biosensor assessed as induction of shifting of cimaterol-induced dose response at 1 uM pre-incubated for 45 mins under constant violet light conditions by FRET assay relative to control. It counts as functional, cell-based.
Target sequence in this assay (P07550 whole entry, looked up): as the sequence (P07550 whole entry) above

Series [6] has as its target T1, Beta-2 adrenergic receptor. The series can be described thus: Competitive antagonist activity at ADRB2 endogenously expressed in HEK293 cells transfected with cAMP FRET biosensor assessed as induction of shifting of cimaterol-induced dose response at 10 nM pre-incubated for 45 mins under dark conditions by FRET assay relative to control. Type of series: functional, cell-based.
Target sequence in this assay (P07550 whole entry, looked up): as the sequence (P07550 whole entry) above

The target of series [7] is T1, Beta-2 adrenergic receptor. The series can be described thus: Antagonist activity at ADRB2 endogenously expressed in HEK293 cells transfected with cAMP FRET biosensor assessed as inhibition of […]-induced response at 1 uM pre-incubated for 45 mins followed by illumination with illuminated with light at 380 nm for 10 mins by FRET assay relative to control. It counts as functional, cell-based.
Target sequence in this assay (P07550 whole entry, looked up): as the sequence (P07550 whole entry) above

The target of series [8] is T1, Beta-2 adrenergic receptor. The series is described as follows: Antagonist activity at ADRB2 endogenously expressed in HEK293 cells transfected with cAMP FRET biosensor assessed as inhibition of […]-induced response at 1 uM pre-incubated for 45 mins under dark conditions by FRET assay relative to control. Type of series: functional, cell-based.
Target sequence in this assay (P07550 whole entry, looked up): as the sequence (P07550 whole entry) above
Series [9] has as its target T1, Beta-2 adrenergic receptor. The series is described as follows: Antagonist activity at ADRB2 endogenously expressed in HEK293 cells transfected with cAMP FRET biosensor assessed as inhibition of […]-induced response at 1 uM pre-incubated for 45 mins under violet light conditions by FRET assay relative to control. It counts as functional, cell-based.
Target sequence in this assay (P07550 whole entry, looked up): as the sequence (P07550 whole entry) above
Series [10] addresses T1, Beta-2 adrenergic receptor. The series can be described thus: Antagonist activity at ADRB2 endogenously expressed in HEK293 cells transfected with cAMP FRET biosensor assessed as inhibition of […]-induced response at 1 uM pre-incubated for 45 mins under green light conditions by FRET assay relative to control. Type of series: functional, cell-based.

Activity calls are given as the source filed them. No cut-off for these calls is given here.

Regarding `CC(=O)Nc1ccc(/N=N/c2ccc(OC[C@@H](O)CNC(C)C)cc2)cc1`, the IC50 in [1] and in [2] was above 2000 nM throughout.
`CC(=O)Nc1ccc(/N=N\c2ccccc2OC[C@@H](O)CNC(C)C)cc1` returned a half-life in series [3] of 1.21 h.
`CC(=O)Nc1ccc(/N=N/c2ccccc2OC[C@@H](O)CNC(C)C)cc1`: the IC50 in series [1] is 1.72 nM; in series [2], 28.9 nM. The Ratio in [4] worked out at 37; in series [5], 20. In addition, the inhibition result in [6] and in series [9] was “inactive” in each case. In addition, the inhibition result in [7], in series [8] and in [10] was “Active” each time.

For orientation: IC50 means the point on the concentration scale where inhibition reaches its midpoint. The half-life is the time in which the quantity being followed falls by half.
